What was measured:
Italian ryegrass [1] = assay: Test Example 5: herbicidal effect by foliage application, plastic box (Table 20, symbol K); format: in vivo, Italian ryegrass (Lolium multiflorum); details: foliage application, three weeks after application
Method in brief: (§1)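 Post-emergence foliar test in sterilized diluvial soil. Compound applied as water-diluted emulsion at a predetermined rate to 14-day-old plants; evaluation at three weeks.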

southern crabgrass [2] = assay: Test Example 5: herbicidal effect by foliage application, plastic box (Table 20, symbol F); format: in vivo, southern crabgrass (Digitaria ciliaris); details: foliage application, three weeks after application
Method in brief: as §1

oval-leafed pondweed = assay: Test Example 1: herbicidal activity, application before weed generation under submerged conditions (Table 16, symbol C); format: in vivo, oval-leafed pondweed (Monochoria vaginalis)
Method in brief: (§2)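 Submerged Wagner pots (alluvial soil, 4 cm water) sown with weed seeds and planted with 2.5-leaf rice seedlings; emulsifiable concentrate diluted in water applied to water surface on sowing day. Held in greenhouse at 25-30 °C; injury scored 0-5 by herbicidal rate after three weeks.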

Japanese bulrush = assay: Test Example 1: herbicidal activity, application before weed generation under submerged conditions (Table 16, symbol B); format: in vivo, Japanese bulrush (Schoenoplectus juncoides)
Method in brief: as §2

Chinese sprangletop = assay: Test Example 3: herbicidal effect by foliage application, Wagner pot (Table 18, symbol D); format: in vivo, chinese sprangletop (Leptochloa chinensis)
Method in brief: (§3)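 Plants were sown in alluvial soil held under 0.1–0.5 cm standing water and grown 14 days in a greenhouse at 25–30 °C. An emulsifiable formulation, water-diluted to the set dose, was then sprayed onto the foliage, and effects were scored three weeks later using previously defined criteria.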

late watergrass = assay: Test Example 1: herbicidal activity, application before weed generation under submerged conditions (Table 16, symbol A); format: in vivo, late watergrass (Echinochloa oryzicola)
Method in brief: as §2

blackgrass [3] = assay: Test Example 5: herbicidal effect by foliage application, plastic box (Table 20, symbol J); format: in vivo, blackgrass (Alopecurus myosuroides); details: foliage application, three weeks after application
Method in brief: as §1

persian speedwell [4] = assay: Test Example 5: herbicidal effect by foliage application, plastic box (Table 20, symbol R); format: in vivo, Persian speedwell (Veronica persica); details: foliage application, three weeks after application
Method in brief: as §1

windgrass [5] = assay: Test Example 4: herbicidal effect by soil treatment (Table 19, symbol L); format: in vivo, windgrass (Apera spica-venti)
Method in brief: (§4)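 Scoring uses the grading scale of an earlier test, three weeks post-application. Treatment consists of spraying a diluted emulsion formulation across the surface of sterilized diluvial soil in which seeds are buried near 1.5 cm deep; boxes are kept in a greenhouse between 25° C. and 30° C.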

redroot pigweed [6] = assay: Test Example 4: herbicidal effect by soil treatment (Table 19, symbol N); format: in vivo, redroot pigweed (Amaranthus retroflexus)
Method in brief: as §4

chickweed [7] = assay: Test Example 5: herbicidal effect by foliage application, plastic box (Table 20, symbol P); format: in vivo, common chickweed (Stellaria media); details: foliage application, three weeks after application
Method in brief: as §1

wild oat [8] = assay: Test Example 4: herbicidal effect by soil treatment (Table 19, symbol I); format: in vivo, wild oat (Avena fatua)
Method in brief: as §4

windgrass [9] = assay: Test Example 5: herbicidal effect by foliage application, plastic box (Table 20, symbol L); format: in vivo, windgrass (Apera spica-venti); details: foliage application, three weeks after application
Method in brief: as §1

rice flat sedge = assay: Test Example 3: herbicidal effect by foliage application, Wagner pot (Table 18, symbol E); format: in vivo, rice flat sedge (Cyperus iria)
Method in brief: as §3

green foxtail [10] = assay: Test Example 4: herbicidal effect by soil treatment (Table 19, symbol G); format: in vivo, green foxtail (Setaria viridis)
Method in brief: as §4

chickweed [11] = assay: Test Example 4: herbicidal effect by soil treatment (Table 19, symbol P); format: in vivo, common chickweed (Stellaria media)
Method in brief: as §4

barnyard grass [12] = assay: Test Example 5: herbicidal effect by foliage application, plastic box (Table 20, symbol H); format: in vivo, barnyard grass (Echinochloa crus-galli); details: foliage application, three weeks after application
Method in brief: as §1

Italian ryegrass [13] = assay: Test Example 4: herbicidal effect by soil treatment (Table 19, symbol K); format: in vivo, Italian ryegrass (Lolium multiflorum)
Method in brief: as §4

redroot pigweed [14] = assay: Test Example 5: herbicidal effect by foliage application, plastic box (Table 20, symbol N); format: in vivo, redroot pigweed (Amaranthus retroflexus); details: foliage application, three weeks after application
Method in brief: as §1

blackgrass [15] = assay: Test Example 4: herbicidal effect by soil treatment (Table 19, symbol J); format: in vivo, blackgrass (Alopecurus myosuroides)
Method in brief: as §4

barnyard grass [16] = assay: Test Example 3: herbicidal effect by foliage application, Wagner pot (Table 18, symbol H); format: in vivo, barnyard grass (Echinochloa crus-galli)
Method in brief: as §3

lambsquarters [17] = assay: Test Example 5: herbicidal effect by foliage application, plastic box (Table 20, symbol O); format: in vivo, lambsquarters (Chenopodium album); details: foliage application, three weeks after application
Method in brief: as §1

velvetleaf [18] = assay: Test Example 4: herbicidal effect by soil treatment (Table 19, symbol M); format: in vivo, velvetleaf (Abutilon theophrasti)
Method in brief: as §4

persian speedwell [19] = assay: Test Example 4: herbicidal effect by soil treatment (Table 19, symbol R); format: in vivo, Persian speedwell (Veronica persica)
Method in brief: as §4

lambsquarters [20] = assay: Test Example 4: herbicidal effect by soil treatment (Table 19, symbol O); format: in vivo, lambsquarters (Chenopodium album)
Method in brief: as §4

green foxtail [21] = assay: Test Example 5: herbicidal effect by foliage application, plastic box (Table 20, symbol G); format: in vivo, green foxtail (Setaria viridis); details: foliage application, three weeks after application
Method in brief: as §1

barnyard grass [22] = assay: Test Example 4: herbicidal effect by soil treatment (Table 19, symbol H); format: in vivo, barnyard grass (Echinochloa crus-galli)
Method in brief: as §4

wild oat [23] = assay: Test Example 5: herbicidal effect by foliage application, plastic box (Table 20, symbol I); format: in vivo, wild oat (Avena fatua); details: foliage application, three weeks after application
Method in brief: as §1

southern crabgrass [24] = assay: Test Example 4: herbicidal effect by soil treatment (Table 19, symbol F); format: in vivo, southern crabgrass (Digitaria ciliaris)
Method in brief: as §4

velvetleaf [25] = assay: Test Example 5: herbicidal effect by foliage application, plastic box (Table 20, symbol M); format: in vivo, velvetleaf (Abutilon theophrasti); details: foliage application, three weeks after application
Method in brief: as §1

[26] = amount of applied herbicide 320 g/ha
[27] = amount of applied herbicide 272 g/ha

CCCC(=O)Oc1c(CC)nn(C)c(=O)c1-c1c(-c2ccc(F)cc2)sc2ccc(F)cc12 [2-407]
K: Italian ryegrass, herbicidal effect grade (Italian ryegrass [1]; 320 g/ha): 3 (Herbicidal rate of 40% or more and less than 70%) | F: southern crabgrass, herbicidal effect grade (southern crabgrass [2]; 320 g/ha): 0 (Herbicidal rate of 5% or less (almost no effect)) | Herbicidal effect, C: oval-leafed pondweed (oval-leafed pondweed; [26]): 0 (Herbicidal rate of 5% or less (almost no effect)) | Herbicidal effect, B: Japanese bulrush (Japanese bulrush; [26]): 0 (Herbicidal rate of 5% or less (almost no effect)) | herbicidal effect on D: Chinese sprangletop (Chinese sprangletop; [26]): 4 (Herbicidal rate of 70% or more and less than 90%) | Herbicidal effect, A: late watergrass (late watergrass; [26]): 3 (Herbicidal rate of 40% or more and less than 70%) | J: blackgrass, herbicidal effect grade (blackgrass [3]; 320 g/ha): 0 (Herbicidal rate of 5% or less (almost no effect)) | R: persian speedwell, herbicidal effect grade (persian speedwell [4]; 320 g/ha): 5 (Herbicidal rate of 90% or more (almost completely withered)) | herbicidal effect, L: windgrass (windgrass [5]; [26]): 0 (Herbicidal rate of 5% or less (almost no effect)) | herbicidal effect, N: redroot pigweed (redroot pigweed [6]; [26]): 3 (Herbicidal rate of 40% or more and less than 70%) | P: chickweed, herbicidal effect grade (chickweed [7]; 320 g/ha): 5 (Herbicidal rate of 90% or more (almost completely withered)) | herbicidal effect, I: wild oat (wild oat [8]; [26]): 0 (Herbicidal rate of 5% or less (almost no effect)) | L: windgrass, herbicidal effect grade (windgrass [9]; 320 g/ha): 0 (Herbicidal rate of 5% or less (almost no effect)) | herbicidal effect on E: rice flat sedge (rice flat sedge; [26]): 4 (Herbicidal rate of 70% or more and less than 90%) | herbicidal effect, G: green foxtail (green foxtail [10]; [26]): 1 (Herbicidal rate of 5% or more and less than 20%) | herbicidal effect, P: chickweed (chickweed [11]; [26]): 1 (Herbicidal rate of 5% or more and less than 20%) | H: barnyard grass, herbicidal effect grade (barnyard grass [12]; 320 g/ha): 3 (Herbicidal rate of 40% or more and less than 70%) | herbicidal effect, K: Italian ryegrass (Italian ryegrass [13]; [26]): 0 (Herbicidal rate of 5% or less (almost no effect)) | N: redroot pigweed, herbicidal effect grade (redroot pigweed [14]; 320 g/ha): 5 (Herbicidal rate of 90% or more (almost completely withered)) | herbicidal effect, J: blackgrass (blackgrass [15]; [26]): 0 (Herbicidal rate of 5% or less (almost no effect)) | herbicidal effect on H: barnyard grass (barnyard grass [16]; [26]): 5 (Herbicidal rate of 90% or more (almost completely withered)) | O: lambsquarters, herbicidal effect grade (lambsquarters [17]; 320 g/ha): 3 (Herbicidal rate of 40% or more and less than 70%) | herbicidal effect, M: velvetleaf (velvetleaf [18]; [26]): 0 (Herbicidal rate of 5% or less (almost no effect)) | herbicidal effect, R: persian speedwell (persian speedwell [19]; [26]): 0 (Herbicidal rate of 5% or less (almost no effect)) | herbicidal effect, O: lambsquarters (lambsquarters [20]; [26]): 1 (Herbicidal rate of 5% or more and less than 20%) | G: green foxtail, herbicidal effect grade (green foxtail [21]; 320 g/ha): 5 (Herbicidal rate of 90% or more (almost completely withered)) | herbicidal effect, H: barnyard grass (barnyard grass [22]; [26]): 0 (Herbicidal rate of 5% or less (almost no effect)) | I: wild oat, herbicidal effect grade (wild oat [23]; 320 g/ha): 0 (Herbicidal rate of 5% or less (almost no effect)) | herbicidal effect, F: southern crabgrass (southern crabgrass [24]; [26]): 0 (Herbicidal rate of 5% or less (almost no effect)) | M: velvetleaf, herbicidal effect grade (velvetleaf [25]; 320 g/ha): 5 (Herbicidal rate of 90% or more (almost completely withered))

COc1cc(F)ccc1-c1sc2ccccc2c1-c1c(O)c(C)nn(C)c1=O [1-055]
herbicidal effect grade, K: Italian ryegrass (Italian ryegrass [1]; 272 g/ha): 4 (Herbicidal rate of 70% or more and less than 90%) | herbicidal effect grade, F: southern crabgrass (southern crabgrass [2]; 272 g/ha): 4 (Herbicidal rate of 70% or more and less than 90%) | Herbicidal effect on C: oval-leafed pondweed (grade 0-5) (oval-leafed pondweed; 272 g/ha applied herbicide): 0 (Herbicidal rate of 5% or less (almost no effect)) | Herbicidal effect on B: Japanese bulrush (grade 0-5) (Japanese bulrush; 272 g/ha applied herbicide): 0 (Herbicidal rate of 5% or less (almost no effect)) | herbicidal effect on D (Chinese sprangletop), rating 0-5 (Chinese sprangletop; 272 g/ha): 2 (Herbicidal rate of 20% or more and less than 40%) | Herbicidal effect on A: late watergrass (grade 0-5) (late watergrass; 272 g/ha applied herbicide): 4 (Herbicidal rate of 70% or more and less than 90%) | herbicidal effect grade, J: blackgrass (blackgrass [3]; 272 g/ha): 5 (Herbicidal rate of 90% or more (almost completely withered)) | herbicidal effect grade, R: persian speedwell (persian speedwell [4]; 272 g/ha): 4 (Herbicidal rate of 70% or more and less than 90%) | herbicidal effect rating, L: windgrass (windgrass [5]; [27]): 3 (Herbicidal rate of 40% or more and less than 70%) | herbicidal effect rating, N: redroot pigweed (redroot pigweed [6]; [27]): 5 (Herbicidal rate of 90% or more (almost completely withered)) | herbicidal effect grade, P: chickweed (chickweed [7]; 272 g/ha): 5 (Herbicidal rate of 90% or more (almost completely withered)) | herbicidal effect rating, I: wild oat (wild oat [8]; [27]): 3 (Herbicidal rate of 40% or more and less than 70%) | herbicidal effect grade, L: windgrass (windgrass [9]; 272 g/ha): 5 (Herbicidal rate of 90% or more (almost completely withered)) | herbicidal effect on E (rice flat sedge), rating 0-5 (rice flat sedge; 272 g/ha): 5 (Herbicidal rate of 90% or more (almost completely withered)) | herbicidal effect rating, G: green foxtail (green foxtail [10]; [27]): 5 (Herbicidal rate of 90% or more (almost completely withered)) | herbicidal effect rating, P: chickweed (chickweed [11]; [27]): 5 (Herbicidal rate of 90% or more (almost completely withered)) | herbicidal effect grade, H: barnyard grass (barnyard grass [12]; 272 g/ha): 4 (Herbicidal rate of 70% or more and less than 90%) | herbicidal effect rating, K: Italian ryegrass (Italian ryegrass [13]; [27]): 3 (Herbicidal rate of 40% or more and less than 70%) | herbicidal effect grade, N: redroot pigweed (redroot pigweed [14]; 272 g/ha): 3 (Herbicidal rate of 40% or more and less than 70%) | herbicidal effect rating, J: blackgrass (blackgrass [15]; [27]): 3 (Herbicidal rate of 40% or more and less than 70%) | herbicidal effect on H (barnyard grass), rating 0-5 (barnyard grass [16]; 272 g/ha): 5 (Herbicidal rate of 90% or more (almost completely withered)) | herbicidal effect grade, O: lambsquarters (lambsquarters [17]; 272 g/ha): 2 (Herbicidal rate of 20% or more and less than 40%) | herbicidal effect rating, M: velvetleaf (velvetleaf [18]; [27]): 0 (Herbicidal rate of 5% or less (almost no effect)) | herbicidal effect rating, R: persian speedwell (persian speedwell [19]; [27]): 5 (Herbicidal rate of 90% or more (almost completely withered)) | herbicidal effect rating, O: lambsquarters (lambsquarters [20]; [27]): 4 (Herbicidal rate of 70% or more and less than 90%) | herbicidal effect grade, G: green foxtail (green foxtail [21]; 272 g/ha): 4 (Herbicidal rate of 70% or more and less than 90%) | herbicidal effect rating, H: barnyard grass (barnyard grass [22]; [27]): 4 (Herbicidal rate of 70% or more and less than 90%) | herbicidal effect grade, I: wild oat (wild oat [23]; 272 g/ha): 5 (Herbicidal rate of 90% or more (almost completely withered)) | herbicidal effect rating, F: southern crabgrass (southern crabgrass [24]; [27]): 2 (Herbicidal rate of 20% or more and less than 40%) | herbicidal effect grade, M: velvetleaf (velvetleaf [25]; 272 g/ha): 3 (Herbicidal rate of 40% or more and less than 70%)

Reference: patent US20230085307A1, “PYRIDAZINONE COMPOUND AND HERBICIDE” (NISSAN CHEMICAL CORPORATION, priority 2019, published 2023)
